For 23 compounds, Ki results are on record in patent US7592345B2, “Piperazine and [1,4]diazepan derivatives as NK antagonists” (Hoffmann-La Roche Inc., priority 2007, dated 2009).

The target of this experiment is T1, recombinant human NK3 receptor (Homo sapiens, UniProt P29371).
T1 construct: expressed in transfected cells; host or cells: HEK293 cells (transient expression), membranes
T1 sequence (P29371 1-465): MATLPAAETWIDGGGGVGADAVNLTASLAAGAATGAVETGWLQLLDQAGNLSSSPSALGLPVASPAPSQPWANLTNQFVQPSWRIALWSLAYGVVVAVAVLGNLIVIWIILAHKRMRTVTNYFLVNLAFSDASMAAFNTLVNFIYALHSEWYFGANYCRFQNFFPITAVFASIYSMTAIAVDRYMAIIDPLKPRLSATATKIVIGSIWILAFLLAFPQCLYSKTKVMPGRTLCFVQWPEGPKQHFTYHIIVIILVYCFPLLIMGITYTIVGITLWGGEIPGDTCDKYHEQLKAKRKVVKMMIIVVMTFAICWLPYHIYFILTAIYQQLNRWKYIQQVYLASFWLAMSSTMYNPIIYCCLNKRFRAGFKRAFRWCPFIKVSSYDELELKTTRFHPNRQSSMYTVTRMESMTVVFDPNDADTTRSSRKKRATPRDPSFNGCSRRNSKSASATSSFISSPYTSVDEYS
The experiment can be described thus: [3H]SR142801 competition binding assay. As to conditions: [3H]SR142801, membranes from HEK293 cells transiently expressing recombinant human NK3 receptor; read-out: hNK3 Ki. How it is done:
[^3H]SR142801 Competition Binding Assay
hNK3 receptor binding experiment were performed using [^3H]SR142801 (Catalog No. TRK1035, specific activity: 74.0 Ci/mmol, Amersham, GE Healthcare UK limited, Buckinghamshire, UK) and membrane isolated from HEK293 cells transiently expressing recombinant human NK3 receptor. After thawing, the membrane homogenates were centrifuged at 48,000×g for 10 min at 4° C., the pellets were resuspended in the 50 mM Tris-HCl, 4 mM MnCl2, 1 μM phosphoramidon, 0.1% BSA binding buffer at pH 7.4 to a final assay concentration of 5 μg protein/well. For inhibition experiments, membranes were incubated with [^3H]SR142801 at a concentration equal to KD value of radioligand and 10 concentrations of the inhibitory compound (0.0003-10 μM) (in a total reaction volume of 500 μl) for 75 min at room temperature (RT). At the end of the incubation, membranes were filtered onto unitfilter (96-well white microplate with bonded GF/C filter preincubated 1 h in 0.3% PEI+0.3% BSA, Packard BioScience, Meriden, Conn.) with a Filtermate 196 harvester (Packard BioScience) and washed 4 times with ice-cold 50 mM Tris-HCl, pH 7.4 buffer. Nonspecific binding was measured in the presence of 10 μM SB222200 for both radioligands. The radioactivity on the filter was counted (5 min) on a Packard Top-count microplate scintillation counter with quenching correction after addition of 45 μl of microscint 40 (Canberra Packard S. A., Zürich, Switzerland) and shaking for 1 h. Inhibition curves were fitted according to the Hill equation: y=100/(1+(x/IC50)^nH), where nH=slope factor using Excel-fit 4 software (Microsoft). IC50 values were derived from the inhibition curve and the affinity constant (Ki) values were calculated using the Cheng-Prussoff equation Ki=IC50/(1+[L]/KD) where [L] is the concentration of radioligand and KD is its dissociation constant at the receptor, derived from the saturation isotherm. All experiments were performed in duplicate and the mean±standard error (SEM) of the individual Ki values was calculated.
A word on the Ki: it is a measure of affinity in units of concentration, obtained from inhibition or displacement. Turning to `CC(CCN1CCN(S(C)(=O)=O)CC1)(C(=O)NCc1ccccc1OC(F)(F)F)c1ccc(Cl)c(Cl)c1` (centres unmarked) [Example 19, 2-(3,4-Dichloro-phenyl)-4-(4-methanesulfonyl-piperazin-1-yl)-2-methyl-N-(2-trifluoromethoxy-benzyl)-butyramide], the Ki was 429 nM. Next, `CC(CCN1CCN(S(C)(=O)=O)CC1)(C(=O)NCc1ccc(C(F)(F)F)c(F)c1)c1ccc(Cl)c(Cl)c1` (centres unmarked) [Example 20, 2-(3,4-Dichloro-phenyl)-N-(3-fluoro-4-trifluoromethyl-benzyl)-4-(4-methanesulfonyl-piperazin-1-yl)-2-methyl-butyramide]: 67.1 nM.

Take `CC(CCN1CCN(S(C)(=O)=O)CC1)(C(=O)NCc1ccc(Cl)c(Cl)c1)c1ccc(Cl)c(Cl)c1` (centres unmarked) [Example 21, N-(3,4-Dichloro-benzyl)-2-(3,4-dichloro-phenyl)-4-(4-methanesulfonyl-piperazin-1-yl)-2-methyl-butyramide]: the inhibition constant (Ki) worked out at 65.5 nM. `Cc1ccc(CN(C)C(=O)C(C)(CCN2CCN(S(C)(=O)=O)CC2)c2ccc(Cl)c(Cl)c2)cc1` (centres unmarked) [Example 22, 2-(3,4-Dichloro-phenyl)-4-(4-methanesulfonyl-piperazin-1-yl)-2,N-dimethyl-N-(4-methyl-benzyl)-butyramide]: the inhibition constant Ki amounted to 77.4 nM.

As to `CN(Cc1ccc(-c2ccncc2)cc1)C(=O)C(C)(CCN1CCN(S(C)(=O)=O)CC1)c1ccc(Cl)c(Cl)c1` (centres unmarked) [Example 23, 2-(3,4-Dichloro-phenyl)-4-(4-methanesulfonyl-piperazin-1-yl)-2,N-dimethyl-N-(4-pyridin-4-yl-benzyl)-butyramide], the Ki worked out at 201 nM. In the case of `CN(Cc1cccc(F)c1)C(=O)C(C)(CCN1CCN(S(C)(=O)=O)CC1)c1ccc(Cl)c(Cl)c1` (centres unmarked) [Example 24, 2-(3,4-Dichloro-phenyl)-N-(3-fluoro-benzyl)-4-(4-methanesulfonyl-piperazin-1-yl)-2,N-dimethyl-butyramide], the Ki stood at 224 nM.

As for `COc1ccc(CN(C)C(=O)C(C)(CCN2CCN(S(C)(=O)=O)CC2)c2ccc(Cl)c(Cl)c2)cc1F` (centres unmarked) [Example 25, 2-(3,4-Dichloro-phenyl)-N-(3-fluoro-4-methoxy-benzyl)-4-(4-methanesulfonyl-piperazin-1-yl)-2,N-dimethyl-butyramide], the Ki is 134 nM.

`COc1cc(CN(C)C(=O)C(C)(CCN2CCN(S(C)(=O)=O)CC2)c2ccc(Cl)c(Cl)c2)ccc1OC(F)F` (centres unmarked) [Example 26, 2-(3,4-Dichloro-phenyl)-N-(4-difluoromethoxy-3-methoxy-benzyl)-4-(4-methanesulfonyl-piperazin-1-yl)-2,N-dimethyl-butyramide]: the Ki came out at 275 nM. The value for `CC(CCN1CCN(S(C)(=O)=O)CC1)(C(=O)NCc1ccc(C(F)(F)F)cc1)c1ccc(Cl)c(Cl)c1` (centres unmarked) [Example 27, 2-(3,4-Dichloro-phenyl)-4-(4-methanesulfonyl-piperazin-1-yl)-2-methyl-N-(4-trifluoromethyl-benzyl)-butyramide] was 82 nM; that for `CN(Cc1ccc(C(F)(F)F)cc1)C(=O)C(C)(CCN1CCN(S(C)(=O)=O)CC1)c1ccc(Cl)c(Cl)c1` (centres unmarked) [Example 28, 2-(3,4-Dichloro-phenyl)-4-(4-methanesulfonyl-piperazin-1-yl)-2,N-dimethyl-N-(4-trifluoromethyl-benzyl)-butyramide] was 45 nM; that for `CC(CCN1CCN(S(C)(=O)=O)CC1)(C(=O)NCc1ccc(Cl)cc1)c1ccc(Cl)c(Cl)c1` (centres unmarked) [Example 29, N-(4-Chloro-benzyl)-2-(3,4-dichloro-phenyl)-4-(4-methanesulfonyl-piperazin-1-yl)-2-methyl-butyramide] was 98.4 nM. For the compound `CC(CCN1CCN(S(C)(=O)=O)CC1)(C(=O)NCc1ccc(Cl)c(F)c1)c1ccc(Cl)c(Cl)c1` (centres unmarked) [Example 30, N-(4-Chloro-3-fluoro-benzyl)-2-(3,4-dichloro-phenyl)-4-(4-methanesulfonyl-piperazin-1-yl)-2-methyl-butyramide], the inhibitory constant (Ki) was 133 nM. As to `COc1ccc(CN(C)C(=O)C(C)(CCN2CCN(S(C)(=O)=O)[C@H](C)C2)c2ccc(Cl)c(Cl)c2)cc1F` (stereo partly drawn) [Example 31, 2-(3,4-Dichloro-phenyl)-N-(3-fluoro-4-methoxy-benzyl)-4-((R)-4-methanesulfonyl-3-methyl-piperazin-1-yl)-2,N-dimethyl-butyramide], the Ki came out at 109 nM.

Turning to `COc1ccc(C(NC(=O)C(C)(CCN2CCN(S(C)(=O)=O)[C@H](C)C2)c2ccc(Cl)c(Cl)c2)C2CC2)cc1` (stereo partly drawn) [Example 32, N-[Cyclopropyl-(4-methoxy-phenyl)-methyl]-2-(3,4-dichloro-phenyl)-4-((R)-4-methanesulfonyl-3-methyl-piperazin-1-yl)-2-methyl-butyramide], the Ki was 16.8 nM. Next, `C[C@@H]1CN(CCC(C)(C(=O)N(C)Cc2ccc(F)c(C(F)(F)F)c2)c2ccc(Cl)c(Cl)c2)CCN1S(C)(=O)=O` (stereo partly drawn) [Example 33, 2-(3,4-Dichloro-phenyl)-N-(4-fluoro-3-trifluoromethyl-benzyl)-4-((R)-4-methanesulfonyl-3-methyl-piperazin-1-yl)-2,N-dimethyl-butyramide]: 15.8 nM; `C[C@@H]1CN(CCC(C)(C(=O)NCc2cc(C(F)(F)F)cc(C(F)(F)F)c2)c2ccc(Cl)c(Cl)c2)CCN1S(C)(=O)=O` (stereo partly drawn) [Example 34, N-(3,5-Bis-trifluoromethyl-benzyl)-2-(3,4-dichloro-phenyl)-4-((R)-4-methanesulfonyl-3-methyl-piperazin-1-yl)-2-methyl-butyramide]: 48.1 nM; `COc1cc(CN(C)C(=O)C(C)(CCN2CCN(S(C)(=O)=O)[C@H](C)C2)c2ccc(Cl)c(Cl)c2)ccc1OC(F)F` (stereo partly drawn) [Example 35, 2-(3,4-Dichloro-phenyl)-N-(4-difluoromethoxy-3-methoxy-benzyl)-4-((R)-4-methanesulfonyl-3-methyl-piperazin-1-yl)-2,N-dimethyl-butyramide]: 216 nM. The value for `Cc1ccc(CN(C)C(=O)C(C)(CCN2CCN(S(C)(=O)=O)[C@H](C)C2)c2ccc(Cl)c(Cl)c2)cc1` (stereo partly drawn) [Example 36, 2-(3,4-Dichloro-phenyl)-4-((R)-4-methanesulfonyl-3-methyl-piperazin-1-yl)-2,N-dimethyl-N-(4-methyl-benzyl)-butyramide] was 50.8 nM; that for `C[C@@H]1CN(CCC(C)(C(=O)NCc2ccc(N(C)C)cc2)c2ccc(Cl)c(Cl)c2)CCN1S(C)(=O)=O` (stereo partly drawn) [Example 37, 2-(3,4-Dichloro-phenyl)-N-(4-dimethylamino-benzyl)-4-((R)-4-methanesulfonyl-3-methyl-piperazin-1-yl)-2-methyl-butyramide] was 485 nM; that for `C[C@@H]1CN(CCC(C)(C(=O)NCc2ccc3nccnc3c2)c2ccc(Cl)c(Cl)c2)CCN1S(C)(=O)=O` (stereo partly drawn) [Example 38, 2-(3,4-Dichloro-phenyl)-4-((R)-4-methanesulfonyl-3-methyl-piperazin-1-yl)-2-methyl-N-quinoxalin-6-ylmethyl-butyramide] was 545 nM. The value for `C[C@@H]1CN(CCC(C)(C(=O)N(C)Cc2ccc(Cl)c(C(F)(F)F)c2)c2ccc(Cl)c(Cl)c2)CCN1S(C)(=O)=O` (stereo partly drawn) [Example 39, N-(4-Chloro-3-trifluoromethyl-benzyl)-2-(3,4-dichloro-phenyl)-4-((R)-4-methanesulfonyl-3-methyl-piperazin-1-yl)-2,N-dimethyl-butyramide] was 12.6 nM. Take `C[C@@H]1CN(CCC(C)(C(=O)N(C)Cc2ccc(C(F)(F)F)c(F)c2)c2ccc(Cl)c(Cl)c2)CCN1S(C)(=O)=O` (stereo partly drawn) [Example 40, 2-(3,4-Dichloro-phenyl)-N-(3-fluoro-4-trifluoromethyl-benzyl)-4-((R)-4-methanesulfonyl-3-methyl-piperazin-1-yl)-2,N-dimethyl-butyramide]: the Ki turned out to be 16.7 nM. Next, `C[C@@H]1CN(CCC(C)(C(=O)N(C)Cc2ccc(Cl)c(Cl)c2)c2ccc(Cl)c(Cl)c2)CCN1S(C)(=O)=O` (stereo partly drawn) [Example 41, N-(3,4-Dichloro-benzyl)-2-(3,4-dichloro-phenyl)-4-((R)-4-methanesulfonyl-3-methyl-piperazin-1-yl)-2,N-dimethyl-butyramide]: 13.3 nM.
